Data reported in US8404747B2, “Compositions and methods for modulating interaction between polypeptides” (The General Hospital Corporation, priority 2004, dated 2013).
Entries after “also recorded” stand apart in the source; their conditions may differ.

Legend:
Cos1 cells = test: toxicity for Cos1 cells; type: cell-based
Procedure: The inhibitory activity we observed with C1-C4 in the PC12 cell model described above was confirmed in Cos1 cells transiently transfected with a CMV promoter-based DNA construct that encodes an Htt exon I fragment of Huntington's disease protein (Htt)) having 51 consecutive glutamine residues (HD Q51). When expressed in Cos1 cells, HD 51Q polypeptides readily form aggregates. Transfected Cos1 cells were incubated with C1-C4 compounds in culture medium and lysed. The lysates were then heat-denatured in SDS and passed through a cellulose acetate membrane, which captures aggregated, but not soluble polypeptides. Polyglutamine aggregates trapped on membranes were detected by immunostaining with antibody specific to extended polyQ. Pre-incubation of cells with compounds C1, C3, and C4 decreased the amount of retained polyQ, indicating inhibitory effects on polyQ aggregation. The IC50 for compound C1 was 10 μM and the IC50 for compounds C3 and C4 was 5 μM. As C2 was toxic for Cos1 cells, its effect on aggregation was not determined.

[1] = tested on: aggregation of 103Q in PC12 cells; test: polyQ (103Q) aggregation in ecdyson-inducible PC12 cells; type: cell-based, rat
Procedure: (§1) To study the inhibitors we identified using the yeast screen in mammalian cells, we employed ecdyson-inducible rat phaeochromocytoma (PC12) cells. Compounds were tested in two clones, 14A2/5 and 14A2/6, with highest aggregation rate. We incubated undifferentiated PC12 cells with muristerone A to induce 103Q expression, and we exposed the cells to compounds at concentrations ranging from 1 to 10 μM. […] All compounds were non-toxic except C2, which was toxic at concentrations higher than 5 μM.
We tested these analogs at concentrations ranging from 0.025 μM to 5.0 μM for their effects on polyQ aggregation in PC12 cells. Among 24 analogs of C1; 28 analogs of C2; 24 analogs of C3, and 53 analogs of C4, we identified several potent inhibitors of polyQ aggregation. From our C2 focus library, we isolated compound C2-8 (B2 in Table 2), which inhibits polyQ aggregation with an IC50 value 50 nM. We also identified C2-10 (B6 in Table 2) and C2-11 (M16 (formula V(n)) in Table 5), and B7, B8 and B9 in Table 2. From our C3 focus library, we isolated compound C3-5 (M22 (formula V(t)) in Table 5) (having an IC50 value of 100 nM) and compound C3-6 (M17 (formula V(o)) in Table 5) (having an IC50 value of 5 μM). From our C4 library, we isolated compound C4-7 (A31 in Table 1), which has an IC50 value 100 nM. We also identified C4-34 (A3 in Table 1).

p53 protein = test: levels of endogenous p53 protein in PC12 cells; type: cell-based, rat
Procedure: The protein levels of Htt fragments containing 103Q in PC12 cells were not affected by incubation with compounds at the concentrations tested. Furthermore, proteolytic capacity of cells treated with compound C2 appeared to be normal, since levels of a highly unstable endogenous p53 protein in PC12 cells were not changed.

[2] = molecular target: T1, Recombinant HD Q51 polypeptide (Homo sapiens, UniProt P42858, INS38QQQQQQQQQQQQQQQQQQQQQQQQQQQQQQ); test: cell-free trap assay of purified polyQ; type: biochemical; details: cell-free; up to 100 mM
T1 construct: made in house
T1 sequence (P42858 with tags, fused parts or gaps with the stated changes): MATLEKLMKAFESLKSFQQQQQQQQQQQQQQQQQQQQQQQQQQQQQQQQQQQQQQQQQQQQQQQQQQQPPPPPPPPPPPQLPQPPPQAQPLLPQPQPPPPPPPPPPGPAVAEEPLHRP
Procedure: To determine whether C2 could directly interfere with polyQ aggregation, we reproduced this process in vitro and assayed the inhibitory effects of the compounds in a cell-free trap assay. Recombinant HD Q51 polypeptide, purified from bacteria, was incubated in the presence or in the absence of C2 for a time sufficient to allow aggregation. Then, upon heat-denaturation in SDS buffer, samples were filtered through a cellulose acetate membrane. Harsh denaturation conditions separated unaggregated soluble peptides, which passed through the membrane, and insoluble aggregates, which were retained on the membrane. The polyQ aggregates trapped on the membrane were subsequently immunostained and quantified.
Congo Red, which is structurally unrelated to C2-8, was used as a control.

PC12 cells = test: toxicity in PC12 cells; type: cell-based, rat
Procedure: as §1
In the C1 library, no inhibitors of polyQ aggregation with high potency were found.

[3] = tested on: SP1 trancription factor binding motif (6XSP1) promoter; test: 6XSP1 luciferase transcription-based assay in 111Q/111Q striatum double knock-in cells; type: cell-based, mouse; details: 6XSP1 luciferase reporter; CG4 among CG series, less potent than C9-4
Procedure: FIGS. 1A-1C. FIG. 1A is a bar graph showing luciferase expression in Sp1-luc/111Q striatum double knock-in cells following treatment with different compounds, as indicated. Fluorescence was measured 24 hours after addition of compound. FIG. 1B is a bar graph as described in FIG. 1A. Fluorescence was measured 48 hours after addition of compound. FIG. 1C is a bar graph as described in FIG. 1A. Fluorescence was measured 72 hours after addition of compound.
We conducted structure activity relationship (SAR) studies to optimize transcription activation. We developed a novel transcription-based assay for this purpose. A luciferase reporter gene was stably integrated into 111Q/111Q striatum double knock-in cells and constitutively expressed under control of a promoter containing six copies of the SP1 trancription factor binding motif (6XSP1). In this system, C9 was determined to have an EC200 of 7.5 μM.

photoreceptor neurons = test: Drosophila HD photoreceptor neurodegeneration model; type: in vivo
Text: A variety of animal models of Huntington disease have been developed. Examination of the degeneration of photoreceptor neurons facilitated by extended polyQ expression is one such model (Jackson et al., Neuron 21:633-642, 1998).
We used the photoreceptor model in Drosophila to test a variety of different compounds, including naphthylamine derivatives, for an effect on neurodegeneration. […] C9-2 is 2-(3-methoxypropyl)-1H-benzo[de]isoquinoline-1,3(2H)-dione.

DNA = DNA binding activity
HDAc = HDAc activity; type: biochemical
[4] = tested on: polyQ-containing polypeptides; test: aggregation of polyQ-containing polypeptides, assay not specified
[5] = tested on: striatum of 11Q/111Q cells and PC12 cells; test: transcriptional activation or repression in striatum 111Q cells and PC12 cells; type: cell-based
Text: Biochemical activity associated with C9-2 is not well understood. […] Future studies include testing the compound for anti-apoptotic activity, and transcriptional profiling using a striatum cell line derived from a double knock-out mutant htt mouse. The C9-2 analogs C9-2B (A30 in Table 1) and C9-2A (control) (A29 in Table 1) are being tested for an effect on photoreceptor neurodegeneration in the Drosophila HD model.

htt103Q-EGFP = test: PC12 htt103Q-EGFP fluorescence assay; type: cell-based; details: PC12 cells
Text: A PC12 cell line was engineered to express extended polyQ under the control of an ecdysone-inducible promoter. In the assay cell line, an N-terminal fragment of htt containing an extended polyQ tract was stably expressed as a fusion with EGFP (htt103Q-EGFP), from the pIND vector. Expression of extended polyQ in these cells was controlled by addition of an ecdysone analog, in this case muristerone A. In this assay, EGFP fluorescence directly correlated with htt103Q-EGFP expression levels. This system was designed to assess the effects of specific compounds on overall levels of extended polyglutamines in cells, using a simple fluorescent-based read-out.

proteasomal dysfunction = proteasomal dysfunction in PC12 cells expressing extended polyQ; type: cell-based
flies = test: toxicity to flies; set-up: species or system Drosophila; details: in vivo
Text: Scriptaid was toxic to flies.

[6] = tested on: mutant Huntingtin transgene (htt); test: transgene (mutant htt, extended polyQ) expression in inducible PC12 cells; type: cell-based, rat; details: 2.5 μM
Text: The compound C9 (A33 in Table 1) has structural similarity to the histone deacetylase (HDAc) inhibitor, scriptaid (6-(1,3-Dioxo-1H,3H-benzo[de]isoquinolin-2-yl)-N-hydroxyhexanamide) (Su et al., Cancer Res. 60:3137, 2000; A5 in Table 1). We observed the most dramatic effect on expression level by C9 and scriptaid in the PC12 cell line 14A2/6 expressing the extended polyQ mutant htt(104Q). The effect of C9 on the down-regulation of polyQ expression, was similar to cystamine, a drug that has shown efficacy in a mouse model for Huntington's Disease (HD). […] 14A2/6 cells were at least 5-fold more responsive to chemical treatment than other cell lines tested.
Transcriptional dysregulation is a hallmark of HD. […] Expression of the polypeptide was under control of an inducible ecdysone receptor (EcR)-based promoter.

In the case of `O=C(Nc1ccc(Br)cc1)c1ccc(Br)c(S(=O)(=O)NC2CCCCC2)c1` [Compound C2, 4-Bromo-N-(4-bromo-phenyl)-3-cyclohexylsulfamoyl-benzamide], the “toxicity for Cos1 cells” value (Cos1 cells) is reported as “toxic”, the IC50 ([1]; Rattus norvegicus, PC-12, PC12 clones 14A2/5 and 14A2/6, muristerone A induced, 1 to 10 μM, read-out: IC50, aggregation of 103Q) is reported as 5 µM and the “levels of endogenous p53 protein” value (p53 protein) is reported as “not changed”. The “aggregation of pure polyglutamines in vitro” value [2] was “failed to block aggregation” and the toxic concentrations (PC12 cells; PC12 cells) was “higher than 5 μM”.
In the case of `COCCCN1C(=O)c2cccc3cccc(c23)C1=O` [Compound C9-2, 2-(3-Methoxy-propyl)-benzo[de]isoquinoline-1,3-dione], the transcription activation [3] is reported as “did not effectively activate transcription”, the “neurodegeneration of photoreceptor neurons” value (photoreceptor neurons) is reported as “dramatic neuroprotection” and the DNA binding activity (DNA) is reported as “nor has DNA binding activity been detected”. The “direct inhibition of HDAc activity” value (HDAc) was “does not appear to inhibit”, the effect on aggregation [4] was “does not appear to suppress aggregation; also recorded: facilitate protein-protein aggregation” and the “transcriptional activation or repression” value [5] was “no transcriptional activation or repression”.
For `CCOC(=O)c1c(NC(=O)Cc2ccc(OC)cc2)sc(C(=O)Nc2ccccc2OC)c1C` [Compound D1, 2-[2-(4-Methoxy-phenyl)-acetylamino]-5-(2-methoxy-phenylcarbamoyl)-4-methyl-thiophene-3-carboxylic acid ethyl ester], the “effect on protein aggregation” value (htt103Q-EGFP) was “facilitators of protein aggregation” and the proteasomal dysfunction phenotype (proteasomal dysfunction) was “relieved this phenotype”.
With `CCOC(=O)c1c(NC(=O)c2ccccc2C)sc(C(=O)Nc2ccccc2OC)c1C` [Compound D2, 5-(2-Methoxy-phenylcarbamoyl)-4-methyl-2-(2-methyl-benzoylamino)-thiophene-3-carboxylic acid ethyl ester] the “effect on protein aggregation” value (htt103Q-EGFP) was “facilitators of protein aggregation” and the proteasomal dysfunction phenotype (proteasomal dysfunction) was “relieved this phenotype”.
With `O=C(CCCCCN1C(=O)c2cccc3cccc(c23)C1=O)NO` [Scriptaid, 6-(1,3-Dioxo-1H,3H-benzo[de]isoquinolin-2-yl)-hexanoic acid hydroxyamide, reference compound] the toxicity to flies (flies) was “toxic”, the cells with aggregation ([1]; 14A2/6 cells, 2.5 μM) was 100% and the expression of transgene ([6]; 14A2/6 cells) was “dramatic overexpression”. The expression of transgene ([6]; other cell lines) was “modestly stimulated” and the cell viability (PC12 cells; 14A2/6 cells, 2.5 μM) was “cell death”.
